Experimental data: publication PMC7101356, “Cross-site and cross-platform variability of automated patch clamp assessments of drug effects on human cardiac currents in recombinant cells” (Scientific Reports, 2020)
pIC50: −log10 of the molar value. Like-named read-outs stand apart in the source and are kept apart here.

Assays:
[1] = target: T1, peak hNav1.5 (Homo sapiens, UniProt Q14524); experiment: Automated patch clamp, peak hNav1.5 current block; type: cell-based
T1 construct: expressed in transfected cells; host or cells: HEK293 or CHO, depending on site
T1 sequence (Q14524 whole entry): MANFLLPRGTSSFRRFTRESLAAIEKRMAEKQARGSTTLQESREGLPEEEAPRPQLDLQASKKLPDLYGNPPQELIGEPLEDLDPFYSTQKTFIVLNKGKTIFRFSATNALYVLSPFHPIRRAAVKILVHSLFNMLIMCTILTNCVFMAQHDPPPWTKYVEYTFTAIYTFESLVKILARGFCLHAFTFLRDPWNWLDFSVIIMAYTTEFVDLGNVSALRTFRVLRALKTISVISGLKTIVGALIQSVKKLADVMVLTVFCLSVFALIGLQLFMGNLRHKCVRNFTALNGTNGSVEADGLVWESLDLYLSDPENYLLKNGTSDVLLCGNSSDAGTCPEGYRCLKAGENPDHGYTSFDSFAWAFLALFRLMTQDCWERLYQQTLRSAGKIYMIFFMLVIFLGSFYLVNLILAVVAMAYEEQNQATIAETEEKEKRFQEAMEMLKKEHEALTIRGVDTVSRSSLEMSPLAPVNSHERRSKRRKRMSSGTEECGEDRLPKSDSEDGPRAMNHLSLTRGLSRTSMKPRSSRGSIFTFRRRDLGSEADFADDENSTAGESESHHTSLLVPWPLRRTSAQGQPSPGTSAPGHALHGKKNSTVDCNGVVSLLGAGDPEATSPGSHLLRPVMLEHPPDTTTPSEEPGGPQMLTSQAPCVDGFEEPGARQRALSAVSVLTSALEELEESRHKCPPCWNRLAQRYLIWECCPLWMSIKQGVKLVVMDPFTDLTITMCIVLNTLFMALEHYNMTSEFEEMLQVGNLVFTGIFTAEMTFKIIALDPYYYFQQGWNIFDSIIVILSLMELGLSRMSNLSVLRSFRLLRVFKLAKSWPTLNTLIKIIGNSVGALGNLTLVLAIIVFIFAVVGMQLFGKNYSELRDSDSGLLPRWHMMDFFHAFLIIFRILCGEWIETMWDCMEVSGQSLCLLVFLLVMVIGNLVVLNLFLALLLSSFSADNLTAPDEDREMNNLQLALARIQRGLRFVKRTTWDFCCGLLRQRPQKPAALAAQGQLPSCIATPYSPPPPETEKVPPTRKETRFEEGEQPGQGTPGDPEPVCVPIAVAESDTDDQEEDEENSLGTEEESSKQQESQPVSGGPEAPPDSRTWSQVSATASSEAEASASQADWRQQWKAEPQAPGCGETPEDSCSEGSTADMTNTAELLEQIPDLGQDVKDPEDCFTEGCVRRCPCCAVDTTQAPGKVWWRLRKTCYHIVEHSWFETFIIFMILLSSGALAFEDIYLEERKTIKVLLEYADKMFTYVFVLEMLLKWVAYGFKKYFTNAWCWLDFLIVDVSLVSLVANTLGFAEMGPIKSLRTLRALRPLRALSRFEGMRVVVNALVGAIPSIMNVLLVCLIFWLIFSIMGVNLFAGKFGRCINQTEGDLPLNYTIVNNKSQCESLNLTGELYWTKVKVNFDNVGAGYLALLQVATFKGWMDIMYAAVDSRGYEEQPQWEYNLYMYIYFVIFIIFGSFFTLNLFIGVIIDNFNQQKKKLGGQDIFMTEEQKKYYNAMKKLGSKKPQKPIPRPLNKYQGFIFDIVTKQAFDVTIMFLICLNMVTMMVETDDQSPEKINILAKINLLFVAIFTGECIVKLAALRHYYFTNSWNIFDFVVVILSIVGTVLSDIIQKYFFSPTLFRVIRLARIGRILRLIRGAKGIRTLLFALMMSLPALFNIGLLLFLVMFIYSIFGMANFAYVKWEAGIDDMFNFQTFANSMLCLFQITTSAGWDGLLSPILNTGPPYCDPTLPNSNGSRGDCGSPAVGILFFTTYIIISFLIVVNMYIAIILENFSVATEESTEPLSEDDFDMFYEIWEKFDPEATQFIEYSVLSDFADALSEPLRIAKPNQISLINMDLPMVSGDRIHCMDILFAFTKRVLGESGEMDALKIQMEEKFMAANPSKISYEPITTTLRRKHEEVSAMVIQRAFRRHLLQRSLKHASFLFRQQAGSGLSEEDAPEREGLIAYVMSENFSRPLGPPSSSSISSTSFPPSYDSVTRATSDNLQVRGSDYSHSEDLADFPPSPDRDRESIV
Description: Peak current was measured during the depolarizing step to −15 mV. Leak current was measured after applying a saturating concentration of a blocker such as lidocaine (2 mM) at the end of each experiment to completely block hNav1.5 current.
(§1) Concentration-response relationships for each test article were independently investigated, i.e., each cell received only one test article, typically evaluating multiple concentrations in a cumulative fashion (lowest to highest concentrations). However, some platforms tested only one concentration per well. Each concentration response was based on a minimum of four concentrations, with a minimum of three wells used for each concentration. In cases of high variability, more cells per concentration were recorded. Prior to drug addition, cells received an addition of vehicle to measure non-test article-related effects such as addition artifacts. At the end of the experiment, a supramaximal concentration of a known inhibitory reference compound was applied to assess leak current and appropriate responsiveness of the test system.
(§2) The steady state current at each concentration was used to determine the concentration-response relationships. Mean concentration-response data were fitted to a standard sigmoidal four-parameter logistic equation (GraphPad Prism 7; GraphPad Inc., La Jolla, CA) of the form: Y=Bottom+(Top−Bottom)/(1+10^∧(LogIC50−X)∗HillSlope) where Y is the current inhibition (in % of pre-drug control), X is the logarithm of drug concentration, and IC50 is the drug concentration producing half-maximal current inhibition. Curve fitting was performed using the following constraints: Top = 100%, Bottom = 0%, Hill Slope <2. No curve fitting was performed in cases with an obvious lack of a concentration-dependent current inhibition and/or small effect size (approximately ≤20%).

[2] = target: T2, late hNav1.5 (Homo sapiens, UniProt Q14524); experiment: Automated patch clamp, late hNav1.5 current block (ATX-II activated); type: cell-based; conditions: for IC50: read-out: log IC50, late hNav1.5 inhibition (converted)
T2 construct: expressed in transfected cells; host or cells: HEK293 or CHO, depending on site
T2 sequence (Q14524 whole entry): as above
Description: However, all external solutions contained 30 nM ATX-II in order to activate late current. Late current was measured at its maximum during the repolarizing ramp.
as §1, §2

[3] = based on CiPA evaluations; cited from earlier work
[4] = target: hCav1.2 (Homo sapiens, UniProt Q13936); experiment: Automated patch clamp, hCav1.2 current block; conditions: log IC50, half-maximal inhibitory concentration
Description: Peak current was measured during the step to 0 mV. Leak current was measured after applying a saturating concentration of a blocker such as cadmium (200 µM) at the end of each experiment to completely block hCav1.2 current.
Concentration-response relationships for each test article were independently investigated, i.e., each cell received only one test article, typically evaluating multiple concentrations in a cumulative fashion (lowest to highest concentrations). However, some platforms tested only one concentration per well. Each concentration response was based on a minimum of four concentrations, with a minimum of three wells used for each concentration. In cases of high variability, more cells per concentration were recorded. Prior to drug addition, cells received an addition of vehicle to measure non-test article-related effects such as addition artifacts. At the end of the experiment, a supramaximal concentration of a known inhibitory reference compound was applied to assess leak current and appropriate responsiveness of the test system. While it was recommended that a separate group of cells (n ≥ 3) be recorded for each experimental day to determine the baseline response to vehicle and to address day-to-day variability, this was not verified.
These criteria were applied to all APC platforms.
as §2

[5] = site_platform s06_p4, 1.00E-05 mol/L
[6] = site_platform s06_p4, 3.00E-07 mol/L
[7] = site_platform s07_p6, 1.00E-05 mol/L
[8] = site_platform s07_p6, 3.00E-07 mol/L
[9] = site_platform s13_p2, 1.00E-05 mol/L
[10] = site_platform s13_p2, 3.00E-07 mol/L
[11] = site_platform s14_p1, 1.00E-05 mol/L
[12] = site_platform s14_p1, 3.00E-07 mol/L

Cc1nccn1CC1CCc2c(c3ccccc3n2C)C1=O (stereo not shown) [ond, ondansetron]
peak hNav1.5 Na+ current inhibition (result in words) ([1]; no inhibition = no obvious concentration-dependent current block and/or no curve fitting performed, all sites): no inhibition | log IC50, peak hNav1.5 Na+ current inhibition ([1]; site_platform s01_p1): no inh. | Peak hNav1.5 Na+ current inhibition, Mean ([1]; site_platform s01_p1, 1.00E-05 mol/L): 56.4% | Peak hNav1.5 Na+ current inhibition, Mean ([1]; site_platform s01_p1, 3.00E-07 mol/L): 31.6% | log IC50, peak hNav1.5 Na+ current inhibition ([1]; site_platform s02_p2): no inh. | Peak hNav1.5 Na+ current inhibition, Mean ([1]; site_platform s02_p2, 1.00E-05 mol/L): 9.4% | Peak hNav1.5 Na+ current inhibition, Mean ([1]; site_platform s02_p2, 3.00E-07 mol/L): 1.4% | log IC50, peak hNav1.5 Na+ current inhibition ([1]; site_platform s04_p3): no inh. | Peak hNav1.5 Na+ current inhibition, Mean ([1]; site_platform s04_p3, 1.00E-05 mol/L): 19.5% | Peak hNav1.5 Na+ current inhibition, Mean ([1]; site_platform s04_p3, 3.00E-07 mol/L): 4.4% | log IC50, peak hNav1.5 Na+ current inhibition ([1]; site_platform s06_p4): no inh. | Peak hNav1.5 Na+ current inhibition, Mean [1, 5]: 19.0% | Peak hNav1.5 Na+ current inhibition, Mean [1, 6]: 0.4% | log IC50, peak hNav1.5 Na+ current inhibition ([1]; site_platform s07_p6): no inh. | Peak hNav1.5 Na+ current inhibition, Mean [1, 7]: 17.1% | Peak hNav1.5 Na+ current inhibition, Mean [1, 8]: 1.7% | log IC50, peak hNav1.5 inhibition ([1]; site_platform s10_p3): no inh. | Peak hNav1.5 Na+ current inhibition, Mean ([1]; site_platform s10_p3, 1.00E-05 mol/L): 20.6% | Peak hNav1.5 Na+ current inhibition, Mean ([1]; site_platform s10_p3, 3.00E-07 mol/L): 0.1% | log IC50, peak hNav1.5 inhibition ([1]; site_platform s11_p1): no inh. | Peak hNav1.5 Na+ current inhibition, Mean ([1]; site_platform s11_p1, 1.00E-05 mol/L): 15.2% | Peak hNav1.5 Na+ current inhibition, Mean ([1]; site_platform s11_p1, 3.00E-07 mol/L): 6.1% | log IC50, peak hNav1.5 inhibition ([1]; site_platform s12_p2): no inh. | Peak hNav1.5 Na+ current inhibition, Mean ([1]; site_platform s12_p2, 1.00E-05 mol/L): 12.2% | Peak hNav1.5 Na+ current inhibition, Mean ([1]; site_platform s12_p2, 3.00E-07 mol/L): 3.0% | log IC50, peak hNav1.5 inhibition ([1]; site_platform s13_p2): no inh. | Peak hNav1.5 Na+ current inhibition, Mean [1, 9]: 7.0% | Peak hNav1.5 Na+ current inhibition, Mean [1, 10]: -3.4% | log IC50, peak hNav1.5 inhibition ([1]; site_platform s14_p1): no inh. | Peak hNav1.5 Na+ current inhibition, Mean [1, 11]: 21.3% | Peak hNav1.5 Na+ current inhibition, Mean [1, 12]: 3.9% | log IC50, peak hNav1.5 inhibition ([1]; site_platform s15_p1): no inh. | Peak hNav1.5 Na+ current inhibition, Mean ([1]; site_platform s15_p1, 1.00E-05 mol/L): 43.9% | Peak hNav1.5 Na+ current inhibition, Mean ([1]; site_platform s15_p1, 3.00E-07 mol/L): 11.8% | log IC50, peak hNav1.5 inhibition ([1]; site_platform s16_p3): no inh. | Peak hNav1.5 Na+ current inhibition, Mean ([1]; site_platform s16_p3, 1.00E-05 mol/L): 14.4% | Peak hNav1.5 Na+ current inhibition, Mean ([1]; site_platform s16_p3, 3.00E-07 mol/L): 2.8% | log IC50, peak hNav1.5 inhibition ([1]; site_platform s17_p1): no inh. | Peak hNav1.5 Na+ current inhibition, Mean ([1]; site_platform s17_p1, 1.00E-05 mol/L): 33.4% | Peak hNav1.5 Na+ current inhibition, Mean ([1]; site_platform s17_p1, 3.00E-07 mol/L): -17.0% | log IC50, peak hNav1.5 inhibition ([1]; site_platform s18_p1): no inh. | Peak hNav1.5 Na+ current inhibition, Mean ([1]; site_platform s18_p1, 1.00E-05 mol/L): 29.7% | Peak hNav1.5 Na+ current inhibition, Mean ([1]; site_platform s18_p1, 3.00E-07 mol/L): 27.5% | log IC50, peak hNav1.5 inhibition ([1]; site_platform s19_p3): no inh. | Peak hNav1.5 Na+ current inhibition, Mean ([1]; site_platform s19_p3, 1.00E-05 mol/L): 24.0% | Peak hNav1.5 Na+ current inhibition, Mean ([1]; site_platform s19_p3, 3.00E-07 mol/L): 3.5% | nH, Hill slope, late hNav1.5 inhibition ([2]; site_platform s06_p4): 1.28 | Late hNav1.5 Na+ current inhibition, Mean [2, 5]: 61.7% | Late hNav1.5 Na+ current inhibition, Mean [2, 6]: 0.5% | IC50 ([2]; site_platform s06_p4): 6.92 µM | nH, Hill slope, late hNav1.5 inhibition ([2]; site_platform s07_p6): 1.57 | Late hNav1.5 Na+ current inhibition, Mean [2, 7]: 47.6% | Late hNav1.5 Na+ current inhibition, Mean [2, 8]: -14.8% | IC50 ([2]; site_platform s07_p6): 10.2 µM | log IC50, late hNav1.5 inhibition ([2]; site_platform s13_p2): no inh. | Late hNav1.5 Na+ current inhibition, Mean [2, 9]: 20.9% | Late hNav1.5 Na+ current inhibition, Mean [2, 10]: 9.2% | log IC50, late hNav1.5 inhibition ([2]; site_platform s14_p1): no inh. | Late hNav1.5 Na+ current inhibition, Mean [2, 11]: 40.9% | Late hNav1.5 Na+ current inhibition, Mean [2, 12]: 20.2% | TdP Risk Category [3]: Intermediate | pIC50 ([4]; site s04_p3): 3.81 | pIC50 ([4]; site s14_p1): 4.54 | pIC50 ([4]; site s16_p3): 5.18
